This passage reports Ki and EC50 results from patent publication US12252524B2, “GIP/GLP1 co-agonist compounds” (Eli Lilly and Company, priority 2018, dated 2025).

One assay concerns the target T1, human Gcg receptor (Homo sapiens, UniProt P47871).
T1 construct: expressed in transfected cells; crude membranes
The experiment in a line: [125I]-Glucagon binding (SPA), human Gcg receptor. To be noted: read-out: hGLcgR Ki, nM (SEM, n). The gist of the method: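 Cell pellets were lysed in hypotonic Tris buffer, pH 7.5, homogenized, and spun at low then high speed to give crude membranes. Ki was derived from the fitted IC50.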

Assay [1] has as its target T2, gastric inhibitory peptide receptor (GIPR) (Homo sapiens, UniProt P48546).
T2 sequence (P48546 22-466): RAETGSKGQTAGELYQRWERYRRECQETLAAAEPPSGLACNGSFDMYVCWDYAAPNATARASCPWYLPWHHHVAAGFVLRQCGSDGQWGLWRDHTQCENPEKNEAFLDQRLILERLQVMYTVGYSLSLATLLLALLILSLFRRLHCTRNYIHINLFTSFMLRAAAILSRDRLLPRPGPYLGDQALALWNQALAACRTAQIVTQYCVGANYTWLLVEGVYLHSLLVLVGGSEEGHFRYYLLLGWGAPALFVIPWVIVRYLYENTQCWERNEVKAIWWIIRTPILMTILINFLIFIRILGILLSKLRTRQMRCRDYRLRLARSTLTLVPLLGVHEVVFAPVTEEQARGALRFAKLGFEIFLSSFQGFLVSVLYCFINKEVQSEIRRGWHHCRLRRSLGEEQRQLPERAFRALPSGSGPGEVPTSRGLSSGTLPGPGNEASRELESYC
The experiment in a line: cAMP pharmacological functional assay in presence of casein, hGIPR. The assay is classed as cell-based. To be noted: HEK293 cells expressing hGIPR, 0.1% Casein, geometric mean; read-out: hGIPR cAMP Rel EC50 nM (SEM, n).

In a further assay the target is T3, human GIP receptor (Homo sapiens, UniProt P48546).
T3 construct: expressed in transfected cells; crude membranes
T3 sequence (P48546 22-466): T2 sequence (P48546 22-466)
Kind of assay: [125I]-GIP binding (SPA), human GIP receptor. To be noted: read-out: hGIPR Ki, nM (SEM, n).

The target of another assay is human GLP-1R (Homo sapiens, UniProt P43220). Kind of assay: [125I]-GLP-1 binding (SPA), human GLP-1 receptor. On the set-up: expressed in transfected cells; crude membranes. To be noted: read-out: hGLP1R Ki, (nM) (SEM, n). The gist of the method:
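Frozen cell pellets are lysed on ice in hypotonic Tris buffer, pH 7.5, homogenized, and centrifuged to a membrane pellet resuspended at about 1 to 3 mg/mL. Binding is then measured in HEPES-based buffer at pH 7.4, and curves are fitted to give IC50 and Ki.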

For assay [2], the target named is human GLP-1 receptor (GLP-1R) (Homo sapiens, UniProt P43220). The experiment in a line: cAMP pharmacological functional assay in presence of casein, hGLP-1R. The assay is classed as cell-based. To be noted: HEK293 cells expressing hGLP-1R, 0.1% Casein, geometric mean; read-out: hGLP1R cAMP Rel EC50 nM (SEM, n).
human GLP-1 receptor (GLP-1R), sequence (P43220 24-463): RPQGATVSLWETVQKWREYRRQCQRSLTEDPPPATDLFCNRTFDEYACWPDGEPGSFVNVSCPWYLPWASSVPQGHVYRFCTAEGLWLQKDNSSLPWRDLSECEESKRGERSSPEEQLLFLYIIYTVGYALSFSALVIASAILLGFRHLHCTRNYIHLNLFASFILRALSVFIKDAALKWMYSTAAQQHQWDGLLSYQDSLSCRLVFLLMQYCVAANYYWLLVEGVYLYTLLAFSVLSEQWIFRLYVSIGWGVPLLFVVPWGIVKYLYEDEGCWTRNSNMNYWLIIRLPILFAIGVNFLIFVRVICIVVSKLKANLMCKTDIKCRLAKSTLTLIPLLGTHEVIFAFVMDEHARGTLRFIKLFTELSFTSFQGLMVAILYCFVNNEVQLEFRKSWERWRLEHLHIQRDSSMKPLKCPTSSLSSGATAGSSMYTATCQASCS

Numbered stars: 1 amine (or outer) side, 2 acyl side, 3 side chain; on linkers, the order of the positions; unused ones are H or OH. Square brackets hold non-standard residues; d marks the D form. Side chains are listed from the residue outwards. Peptide text beside a SMILES is read from it. * marks the point of attachment. C20 diacid = O=C(O)CCCCCCCCCCCCCCCCCCC(=O)*; αMePhe(2-F) = C[C@](N)(Cc1ccccc1F)C(=O)O; γGlu = O=C(O)[C@H](CCC(=O)[*:2])N[*:1]; 4Pal = N[C@@H](Cc1ccncc1)C(=O)O; αMeL = CC(C)C[C@](C)(N)C(=O)O; AEEA = NCCOCCOCC(=O)O; Aib = CC(C)(N)C(=O)O

T1 sequence (P47871 26-477): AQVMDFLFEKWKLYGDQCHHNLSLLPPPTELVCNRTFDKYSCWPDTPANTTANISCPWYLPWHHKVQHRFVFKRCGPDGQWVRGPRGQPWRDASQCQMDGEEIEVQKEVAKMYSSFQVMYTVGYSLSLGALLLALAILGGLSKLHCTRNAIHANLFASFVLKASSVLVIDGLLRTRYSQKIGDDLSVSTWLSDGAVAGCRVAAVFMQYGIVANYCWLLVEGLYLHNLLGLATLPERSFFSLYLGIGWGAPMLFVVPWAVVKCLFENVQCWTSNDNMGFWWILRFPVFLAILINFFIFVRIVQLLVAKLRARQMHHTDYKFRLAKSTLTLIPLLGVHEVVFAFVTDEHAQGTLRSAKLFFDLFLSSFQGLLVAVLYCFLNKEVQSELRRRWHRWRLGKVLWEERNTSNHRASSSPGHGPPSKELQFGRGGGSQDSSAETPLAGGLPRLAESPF
human GLP-1R, sequence (P43220 24-463): as the sequence (P43220 24-463) above

On to `CC[C@H](C)[C@H](NC(=O)[C@H](CC(C)C)NC(=O)[C@H](Cc1ccc(O)cc1)NC(=O)[C@@H](CCC(=O)O)NC(=O)[C@@H](NC(=O)[C@H](Cc1ccccc1)NC(=O)[C@@H](NC(=O)C(C)(C)NC(=O)[C@H](CCC(N)=O)NC(=O)[C@H](C)NC(=O)[C@H](CCCCNC(=O)COCCOCCNC(=O)COCCOCCNC(=O)CC[C@H](NC(=O)CCCCCCCCCCCCCCCCCCC(=O)O)C(=O)O)NC(=O)[C@H](CCC(=O)O)NC(=O)[C@H](CC(=O)O)NC(=O)[C@H](CC(C)C)NC(=O)[C@](C)(CC(C)C)NC(=O)[C@@H](NC(=O)[C@H](CO)NC(=O)C(C)(C)NC(=O)[C@H](CC(=O)O)NC(=O)[C@H](CO)NC(=O)[C@@H](NC(=O)[C@](C)(Cc1ccccc1F)NC(=O)[C@@H](NC(=O)CNC(=O)[C@H](CCC(=O)O)NC(=O)C(C)(C)NC(=O)[C@@H](N)Cc1ccc(O)cc1)[C@@H](C)O)[C@@H](C)O)[C@@H](C)CC)[C@@H](C)O)[C@@H](C)CC)C(=O)N[C@@H](CCC(=O)O)C(=O)NCC(=O)NCC(=O)N1CCC[C@H]1C(=O)N[C@@H](CO)C(=O)N[C@@H](CO)C(=O)NCC(=O)N[C@@H](C)C(=O)N1CCC[C@H]1C(=O)N1CCC[C@H]1C(=O)N1CCC[C@H]1C(=O)N[C@@H](CO)C(N)=O` [Example 160] (H-Y[Aib]EGT[αMePhe(2-F)]TSD[Aib]SI[αMeL]LDEK([AEEA-AEEA-γGlu-C20 diacid])AQ[Aib]TFI[dE]YLIEGGPSSGAPPPS-NH2), for which the figures for the Ki on human Gcg receptor, at human GIP receptor and at human GLP-1R were more than 1060 nM, 5.98 nM and 14.4 nM, respectively. In addition, the EC50 is 21 nM in assay [1] and 0.0461 nM in assay [2].
For the molecule `CC[C@H](C)[C@H](NC(=O)[C@H](CC(C)C)NC(=O)[C@H](Cc1ccc(O)cc1)NC(=O)[C@H](CCC(=O)O)NC(=O)[C@@H](NC(=O)[C@H](Cc1ccccc1)NC(=O)[C@H](CCC(=O)O)NC(=O)C(C)(C)NC(=O)[C@H](CCC(N)=O)NC(=O)[C@H](C)NC(=O)[C@H](CCCCNC(=O)COCCOCCNC(=O)COCCOCCNC(=O)CC[C@H](NC(=O)CCCCCCCCCCCCCCCCCCC(=O)O)C(=O)O)NC(=O)[C@H](CCC(=O)O)NC(=O)[C@H](CC(=O)O)NC(=O)[C@H](CC(C)C)NC(=O)[C@](C)(CC(C)C)NC(=O)[C@@H](NC(=O)[C@H](CO)NC(=O)[C@H](Cc1ccc(O)cc1)NC(=O)[C@H](CC(=O)O)NC(=O)[C@H](CO)NC(=O)[C@@H](NC(=O)[C@](C)(Cc1ccccc1F)NC(=O)[C@@H](NC(=O)CNC(=O)[C@H](CCC(=O)O)NC(=O)C(C)(C)NC(=O)[C@@H](N)Cc1c[nH]cn1)[C@@H](C)O)[C@@H](C)O)[C@@H](C)CC)[C@@H](C)CC)C(=O)N[C@@H](CCC(=O)O)C(=O)NCC(=O)NCC(=O)N1CCC[C@H]1C(=O)N[C@@H](CO)C(=O)N[C@@H](CO)C(=O)NCC(=O)N[C@@H](C)C(=O)N1CCC[C@H]1C(=O)N1CCC[C@H]1C(=O)N1CCC[C@H]1C(=O)N[C@@H](CO)C(N)=O` [Example 163] (H-H[Aib]EGT[αMePhe(2-F)]TSDYSI[αMeL]LDEK([AEEA-AEEA-γGlu-C20 diacid])AQ[Aib]EFIEYLIEGGPSSGAPPPS-NH2), the results for the Ki at human Gcg receptor, on human GIP receptor and at human GLP-1R were 117 nM, 0.116 nM and 10.8 nM, respectively. The EC50 in assay [1] stood at 0.121 nM; in assay [2], 0.0316 nM.
The matching figures for `CC[C@H](C)[C@H](NC(=O)[C@H](CC(C)C)NC(=O)[C@H](Cc1ccc(O)cc1)NC(=O)C(C)(C)NC(=O)[C@@H](NC(=O)[C@H](Cc1ccccc1)NC(=O)[C@H](CCC(=O)O)NC(=O)C(C)(C)NC(=O)[C@H](CCC(N)=O)NC(=O)[C@H](C)NC(=O)[C@H](CCCCNC(=O)COCCOCCNC(=O)COCCOCCNC(=O)CC[C@H](NC(=O)CCCCCCCCCCCCCCCCCCC(=O)O)C(=O)O)NC(=O)[C@H](CCC(=O)O)NC(=O)[C@H](CC(=O)O)NC(=O)[C@H](CC(C)C)NC(=O)[C@](C)(CC(C)C)NC(=O)[C@@H](NC(=O)[C@H](CO)NC(=O)[C@H](Cc1ccncc1)NC(=O)[C@H](CC(=O)O)NC(=O)[C@H](CO)NC(=O)[C@@H](NC(=O)[C@](C)(Cc1ccccc1F)NC(=O)[C@@H](NC(=O)CNC(=O)[C@H](CCC(=O)O)NC(=O)C(C)(C)NC(=O)[C@@H](N)Cc1ccc(O)cc1)[C@@H](C)O)[C@@H](C)O)[C@@H](C)CC)[C@@H](C)CC)C(=O)N[C@@H](CCC(=O)O)C(=O)NCC(=O)NCC(=O)N1CCC[C@H]1C(=O)N[C@@H](CO)C(=O)N[C@@H](CO)C(=O)NCC(=O)N[C@@H](C)C(=O)N1CCC[C@H]1C(=O)N1CCC[C@H]1C(=O)N1CCC[C@H]1C(=O)N[C@@H](CO)C(N)=O` [Example 189] (H-Y[Aib]EGT[αMePhe(2-F)]TSD[4Pal]SI[αMeL]LDEK([AEEA-AEEA-γGlu-C20 diacid])AQ[Aib]EFI[Aib]YLIEGGPSSGAPPPS-NH2): 146 nM, 0.128 nM, 8.81 nM, 0.0775 nM and 0.0608 nM.
For `CC[C@H](C)[C@H](NC(=O)[C@H](CC(C)C)NC(=O)[C@H](Cc1ccc(O)cc1)NC(=O)[C@@H](CCC(=O)O)NC(=O)[C@@H](NC(=O)[C@H](Cc1ccccc1)NC(=O)[C@H](CCC(=O)O)NC(=O)C(C)(C)NC(=O)[C@H](CCC(N)=O)NC(=O)[C@H](C)NC(=O)[C@H](CCCCNC(=O)COCCOCCNC(=O)COCCOCCNC(=O)CC[C@H](NC(=O)CCCCCCCCCCCCCCCCCCC(=O)O)C(=O)O)NC(=O)[C@H](CCC(=O)O)NC(=O)[C@H](CC(=O)O)NC(=O)[C@H](CC(C)C)NC(=O)[C@](C)(CC(C)C)NC(=O)[C@@H](NC(=O)[C@H](CO)NC(=O)[C@@H](NC(=O)[C@H](CC(=O)O)NC(=O)[C@H](CO)NC(=O)[C@@H](NC(=O)[C@](C)(Cc1ccccc1F)NC(=O)[C@@H](NC(=O)CNC(=O)[C@H](CCC(=O)O)NC(=O)C(C)(C)NC(=O)[C@@H](N)Cc1ccc(O)cc1)[C@@H](C)O)[C@@H](C)O)C(C)C)[C@@H](C)CC)[C@@H](C)CC)C(=O)N[C@@H](CCC(=O)O)C(=O)NCC(=O)NCC(=O)N1CCC[C@H]1C(=O)N[C@@H](CO)C(=O)N[C@@H](CO)C(=O)NCC(=O)N[C@@H](C)C(=O)N1CCC[C@H]1C(=O)N1CCC[C@H]1C(=O)N1CCC[C@H]1C(=O)N[C@@H](CO)C(N)=O` [Example 191] (H-Y[Aib]EGT[αMePhe(2-F)]TSDVSI[αMeL]LDEK([AEEA-AEEA-γGlu-C20 diacid])AQ[Aib]EFI[dE]YLIEGGPSSGAPPPS-NH2), the Ki at human Gcg receptor came to 348 nM; on human GIP receptor it was 0.144 nM; at human GLP-1R it was 4.52 nM. The EC50 in assay [1] came to 0.0645 nM; in assay [2], 0.0356 nM.
Turning to `CC[C@H](C)[C@H](NC(=O)[C@H](CC(C)C)NC(=O)[C@H](Cc1ccc(O)cc1)NC(=O)[C@@H](CCC(=O)O)NC(=O)[C@@H](NC(=O)[C@H](Cc1ccccc1)NC(=O)[C@H](CCC(=O)O)NC(=O)C(C)(C)NC(=O)[C@H](CCC(N)=O)NC(=O)[C@H](C)NC(=O)[C@H](CCCCNC(=O)COCCOCCNC(=O)COCCOCCNC(=O)CC[C@H](NC(=O)CCCCCCCCCCCCCCCCCCC(=O)O)C(=O)O)NC(=O)[C@H](CCC(=O)O)NC(=O)[C@H](CC(=O)O)NC(=O)[C@H](CC(C)C)NC(=O)[C@](C)(CC(C)C)NC(=O)[C@@H](NC(=O)[C@H](CO)NC(=O)[C@H](C)NC(=O)[C@H](CC(=O)O)NC(=O)[C@H](CO)NC(=O)[C@@H](NC(=O)[C@](C)(Cc1ccccc1F)NC(=O)[C@@H](NC(=O)CNC(=O)[C@H](CCC(=O)O)NC(=O)C(C)(C)NC(=O)[C@@H](N)Cc1ccc(O)cc1)[C@@H](C)O)[C@@H](C)O)[C@@H](C)CC)[C@@H](C)CC)C(=O)N[C@@H](CCC(=O)O)C(=O)NCC(=O)NCC(=O)N1CCC[C@H]1C(=O)N[C@@H](CO)C(=O)N[C@@H](CO)C(=O)NCC(=O)N[C@@H](C)C(=O)N1CCC[C@H]1C(=O)N1CCC[C@H]1C(=O)N1CCC[C@H]1C(=O)N[C@@H](CO)C(N)=O` [Example 192] (H-Y[Aib]EGT[αMePhe(2-F)]TSDASI[αMeL]LDEK([AEEA-AEEA-γGlu-C20 diacid])AQ[Aib]EFI[dE]YLIEGGPSSGAPPPS-NH2; N-terminus assumed), the Ki is more than 1110 nM on human Gcg receptor, 0.118 nM on human GIP receptor and 2.89 nM on human GLP-1R. The EC50 in assay [1] came out at 0.0615 nM; in assay [2] it was 0.0289 nM.

Usually Ki stands for the dissociation constant of the complex between target and ligand, obtained from inhibition or displacement. As usually defined, the EC50 is the concentration at which the effect is half-maximal.
